In patent publication US7074789B2, “Kinase inhibitors” (Amgen Inc., priority 1999, dated 2006):

Assays:
Format in all cases: biochemical
Lck = target: T1, Lck (Homo sapiens, UniProt P06239); test: Kinase inhibition assay (33P transfer), Lck; settings: Table 3; read-out: Lck-1
T1 construct: Kinases are expressed as either kinase domains or full length constructs; made in house
Summary of the method: (§1)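 Liquid scintillation counting of 33P on plate-bound synthetic substrates gives kinase activity. Plates are washed in 0.5% phosphoric acid first; kinases are tagged recombinant proteins from E. coli or baculovirus-infected High Five cells.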

Zap-70 = target: T2, Zap-70 (Homo sapiens, UniProt P43403); test: Kinase inhibition assay (33P transfer), Zap-70; settings: Table 3; read-out: Zap-1
T2 construct: Kinases are expressed as either kinase domains or full length constructs; made in house
T2 sequence (P43403 1-619): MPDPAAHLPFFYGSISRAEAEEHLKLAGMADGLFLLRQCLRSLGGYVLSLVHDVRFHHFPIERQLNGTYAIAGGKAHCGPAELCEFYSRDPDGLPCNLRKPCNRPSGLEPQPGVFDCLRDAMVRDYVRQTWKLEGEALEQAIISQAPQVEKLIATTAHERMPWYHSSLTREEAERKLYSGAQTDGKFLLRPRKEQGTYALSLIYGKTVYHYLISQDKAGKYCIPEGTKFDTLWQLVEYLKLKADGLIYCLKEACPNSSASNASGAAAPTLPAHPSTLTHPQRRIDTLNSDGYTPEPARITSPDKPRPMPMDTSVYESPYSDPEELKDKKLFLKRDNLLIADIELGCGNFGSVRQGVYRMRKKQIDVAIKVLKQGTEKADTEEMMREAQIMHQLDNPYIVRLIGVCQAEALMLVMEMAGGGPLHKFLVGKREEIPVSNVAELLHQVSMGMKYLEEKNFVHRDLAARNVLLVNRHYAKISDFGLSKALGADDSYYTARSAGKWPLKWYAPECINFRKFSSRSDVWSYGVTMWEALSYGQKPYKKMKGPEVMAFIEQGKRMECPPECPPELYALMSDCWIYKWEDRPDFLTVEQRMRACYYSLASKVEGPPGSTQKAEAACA
Summary of the method: as §1

IGFR-1 = target: T3, IGFR-1 (Homo sapiens, UniProt P08069); test: Kinase inhibition assay (33P transfer), IGFR-1; settings: Table 2, kinase inhibition class
T3 construct: Kinases are expressed as either kinase domains or full length constructs; made in house

Kdr = target: T4, Kdr (Homo sapiens, UniProt P35968); test: Kinase inhibition assay (33P transfer), Kdr; settings: Table 3; read-out: KDR-1
T4 construct: Kinases are expressed as either kinase domains or full length constructs; made in house
Summary of the method: as §1

EGFR = target: T5, EGFR (Homo sapiens, UniProt P00533); test: Kinase inhibition assay (33P transfer), EGFR; settings: Table 2, kinase inhibition class; read-out: EGFR-1
T5 construct: Kinases are expressed as either kinase domains or full length constructs; made in house
Summary of the method: (§2)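 Kinase domains or full-length enzymes, GST- or polyHis-tagged, were expressed in E. coli or baculovirus High Five cells and affinity-purified. Transfer of 33PO4 from ATP onto plate-bound poly(Glu,Tyr) 4:1 or poly(Arg,Ser) 3:1 was counted by liquid scintillation after a 0.5% phosphoric acid wash. IC50 = concentration halving incorporation.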

AKT = target: T6, AKT (Homo sapiens, UniProt Q9Y243); test: Kinase inhibition assay (33P transfer), AKT; settings: Table 2, kinase inhibition class; read-out: AKT3-1
T6 construct: Kinases are expressed as either kinase domains or full length constructs; made in house
Summary of the method: as §1

c-Met = target: T7, c-Met (Homo sapiens, UniProt P08581); test: Kinase inhibition assay (33P transfer), c-Met; settings: Table 2, kinase inhibition class; read-out: Met-1
T7 construct: Kinases are expressed as either kinase domains or full length constructs; made in house
Summary of the method: as §2

Itk = target: T8, Itk (Homo sapiens, UniProt Q08881); test: Kinase inhibition assay (33P transfer), Itk; settings: Table 3; read-out: Itk-1
T8 construct: Kinases are expressed as either kinase domains or full length constructs; made in house
T8 sequence (Q08881 1-620): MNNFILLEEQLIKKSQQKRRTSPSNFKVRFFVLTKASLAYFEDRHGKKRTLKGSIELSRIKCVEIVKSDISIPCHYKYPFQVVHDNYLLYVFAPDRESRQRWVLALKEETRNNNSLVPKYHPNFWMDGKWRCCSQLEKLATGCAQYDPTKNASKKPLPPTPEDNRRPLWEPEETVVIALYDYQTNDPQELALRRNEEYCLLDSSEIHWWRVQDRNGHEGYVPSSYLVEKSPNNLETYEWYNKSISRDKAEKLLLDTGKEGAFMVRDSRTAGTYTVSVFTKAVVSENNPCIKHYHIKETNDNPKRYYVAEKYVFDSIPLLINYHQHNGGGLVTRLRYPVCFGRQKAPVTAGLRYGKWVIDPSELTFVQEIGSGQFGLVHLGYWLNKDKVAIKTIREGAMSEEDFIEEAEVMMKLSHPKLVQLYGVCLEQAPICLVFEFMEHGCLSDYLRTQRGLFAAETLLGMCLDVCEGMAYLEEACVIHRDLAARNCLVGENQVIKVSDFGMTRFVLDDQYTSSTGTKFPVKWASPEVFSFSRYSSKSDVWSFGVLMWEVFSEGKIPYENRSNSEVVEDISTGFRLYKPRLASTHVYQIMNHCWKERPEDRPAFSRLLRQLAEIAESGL
Summary of the method: as §2

Tek = target: T9, Tek (Homo sapiens, UniProt Q02763); test: Kinase inhibition assay (33P transfer), Tek; settings: read-out: Tek-1
T9 construct: Kinases are expressed as either kinase domains or full length constructs; made in house
Summary of the method: as §2

EPHB4 = target: T10, EPHB4 (Homo sapiens, UniProt P54760); test: Kinase inhibition assay (33P transfer), EPHB4; settings: read-out: EPHB4-1
T10 construct: Kinases are expressed as either kinase domains or full length constructs; made in house
T10 sequence (P54760 16-987): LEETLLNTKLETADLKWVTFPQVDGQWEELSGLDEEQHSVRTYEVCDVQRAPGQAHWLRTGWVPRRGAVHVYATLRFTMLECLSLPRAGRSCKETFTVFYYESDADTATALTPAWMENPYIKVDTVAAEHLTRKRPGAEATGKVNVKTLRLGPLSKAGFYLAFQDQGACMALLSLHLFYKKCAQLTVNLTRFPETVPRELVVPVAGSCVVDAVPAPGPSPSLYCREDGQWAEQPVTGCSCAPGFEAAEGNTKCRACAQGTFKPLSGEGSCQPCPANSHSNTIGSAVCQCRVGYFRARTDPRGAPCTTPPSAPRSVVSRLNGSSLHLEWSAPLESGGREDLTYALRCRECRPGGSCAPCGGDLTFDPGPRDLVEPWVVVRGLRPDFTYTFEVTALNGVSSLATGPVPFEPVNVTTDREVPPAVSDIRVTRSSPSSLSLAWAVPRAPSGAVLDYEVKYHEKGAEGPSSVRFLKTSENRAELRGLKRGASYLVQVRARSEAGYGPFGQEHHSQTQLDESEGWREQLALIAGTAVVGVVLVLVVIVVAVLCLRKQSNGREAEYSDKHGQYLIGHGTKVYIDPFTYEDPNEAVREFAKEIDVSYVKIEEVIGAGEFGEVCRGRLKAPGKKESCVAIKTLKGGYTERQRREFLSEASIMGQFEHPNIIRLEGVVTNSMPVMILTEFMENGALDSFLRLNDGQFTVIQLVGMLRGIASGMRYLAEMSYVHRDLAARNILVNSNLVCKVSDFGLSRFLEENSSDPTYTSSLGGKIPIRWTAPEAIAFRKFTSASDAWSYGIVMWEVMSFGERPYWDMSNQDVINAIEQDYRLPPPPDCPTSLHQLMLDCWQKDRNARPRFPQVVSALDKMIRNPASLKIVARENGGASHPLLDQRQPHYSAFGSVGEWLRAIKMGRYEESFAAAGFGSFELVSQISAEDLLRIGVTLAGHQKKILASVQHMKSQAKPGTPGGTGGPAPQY

T5 sequence (P00533 25-1210, species assumed): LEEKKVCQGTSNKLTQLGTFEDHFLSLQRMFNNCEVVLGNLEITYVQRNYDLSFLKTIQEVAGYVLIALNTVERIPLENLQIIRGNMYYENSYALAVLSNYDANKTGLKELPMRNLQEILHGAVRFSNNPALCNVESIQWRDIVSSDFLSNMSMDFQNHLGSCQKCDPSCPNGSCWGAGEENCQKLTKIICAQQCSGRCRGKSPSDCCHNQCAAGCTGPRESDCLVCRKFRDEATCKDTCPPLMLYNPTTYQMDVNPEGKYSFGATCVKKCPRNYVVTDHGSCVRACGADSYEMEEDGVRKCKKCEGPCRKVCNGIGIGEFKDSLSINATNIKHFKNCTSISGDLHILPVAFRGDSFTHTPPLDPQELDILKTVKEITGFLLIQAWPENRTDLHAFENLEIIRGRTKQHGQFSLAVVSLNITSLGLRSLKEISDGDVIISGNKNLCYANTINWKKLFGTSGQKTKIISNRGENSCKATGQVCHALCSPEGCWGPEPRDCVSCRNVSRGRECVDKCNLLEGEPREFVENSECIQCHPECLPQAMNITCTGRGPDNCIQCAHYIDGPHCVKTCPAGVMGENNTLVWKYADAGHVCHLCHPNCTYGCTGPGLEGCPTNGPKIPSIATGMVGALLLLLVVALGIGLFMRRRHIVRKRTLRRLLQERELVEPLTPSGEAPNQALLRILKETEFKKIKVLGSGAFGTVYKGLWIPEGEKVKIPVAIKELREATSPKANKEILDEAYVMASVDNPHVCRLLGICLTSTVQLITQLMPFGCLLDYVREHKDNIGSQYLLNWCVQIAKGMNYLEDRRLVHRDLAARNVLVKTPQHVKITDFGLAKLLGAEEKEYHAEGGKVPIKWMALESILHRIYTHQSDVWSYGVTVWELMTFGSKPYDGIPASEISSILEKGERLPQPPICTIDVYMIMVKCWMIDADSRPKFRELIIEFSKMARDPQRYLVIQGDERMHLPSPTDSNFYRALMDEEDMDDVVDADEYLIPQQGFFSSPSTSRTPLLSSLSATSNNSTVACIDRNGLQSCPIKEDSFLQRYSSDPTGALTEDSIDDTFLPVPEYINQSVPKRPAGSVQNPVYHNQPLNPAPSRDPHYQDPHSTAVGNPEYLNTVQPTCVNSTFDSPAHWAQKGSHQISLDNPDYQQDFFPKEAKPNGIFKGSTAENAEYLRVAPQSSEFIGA
T7 sequence (P08581 25-1390): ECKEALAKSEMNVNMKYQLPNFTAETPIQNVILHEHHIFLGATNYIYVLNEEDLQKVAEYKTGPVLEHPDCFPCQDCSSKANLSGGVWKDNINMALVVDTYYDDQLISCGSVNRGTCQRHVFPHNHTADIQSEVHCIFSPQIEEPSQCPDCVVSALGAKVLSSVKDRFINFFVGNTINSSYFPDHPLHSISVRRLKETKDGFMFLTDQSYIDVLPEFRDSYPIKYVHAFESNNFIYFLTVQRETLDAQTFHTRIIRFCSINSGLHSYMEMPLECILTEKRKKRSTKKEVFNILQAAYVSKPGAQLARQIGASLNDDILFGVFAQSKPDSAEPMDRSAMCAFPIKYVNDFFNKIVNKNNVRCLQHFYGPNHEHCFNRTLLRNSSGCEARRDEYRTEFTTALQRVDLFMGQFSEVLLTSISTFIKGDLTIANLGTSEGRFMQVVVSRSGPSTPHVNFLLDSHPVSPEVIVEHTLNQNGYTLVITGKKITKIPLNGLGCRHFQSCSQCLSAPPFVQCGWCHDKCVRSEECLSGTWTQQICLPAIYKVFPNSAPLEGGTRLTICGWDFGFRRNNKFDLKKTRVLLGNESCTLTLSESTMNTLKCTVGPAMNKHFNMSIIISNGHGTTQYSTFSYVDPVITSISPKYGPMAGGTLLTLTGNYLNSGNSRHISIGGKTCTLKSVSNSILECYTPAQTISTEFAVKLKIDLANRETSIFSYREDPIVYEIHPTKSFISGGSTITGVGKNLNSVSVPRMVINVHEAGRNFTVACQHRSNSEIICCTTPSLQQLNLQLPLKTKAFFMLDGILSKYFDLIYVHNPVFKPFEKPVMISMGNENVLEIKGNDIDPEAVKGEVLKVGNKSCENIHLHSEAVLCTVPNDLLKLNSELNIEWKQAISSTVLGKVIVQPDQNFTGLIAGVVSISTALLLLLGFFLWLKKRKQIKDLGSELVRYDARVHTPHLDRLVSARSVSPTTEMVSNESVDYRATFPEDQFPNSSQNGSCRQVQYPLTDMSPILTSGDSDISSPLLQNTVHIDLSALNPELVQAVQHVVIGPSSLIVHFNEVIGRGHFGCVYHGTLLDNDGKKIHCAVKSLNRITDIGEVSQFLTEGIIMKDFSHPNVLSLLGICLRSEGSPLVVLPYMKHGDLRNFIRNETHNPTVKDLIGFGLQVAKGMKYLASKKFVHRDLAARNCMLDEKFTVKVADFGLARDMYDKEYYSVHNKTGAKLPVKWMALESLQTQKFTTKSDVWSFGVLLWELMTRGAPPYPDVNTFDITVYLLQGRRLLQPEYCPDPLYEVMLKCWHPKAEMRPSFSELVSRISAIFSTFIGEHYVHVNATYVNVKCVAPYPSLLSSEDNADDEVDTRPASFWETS
T6 sequence (Q9Y243 whole entry, the tested form may be a part): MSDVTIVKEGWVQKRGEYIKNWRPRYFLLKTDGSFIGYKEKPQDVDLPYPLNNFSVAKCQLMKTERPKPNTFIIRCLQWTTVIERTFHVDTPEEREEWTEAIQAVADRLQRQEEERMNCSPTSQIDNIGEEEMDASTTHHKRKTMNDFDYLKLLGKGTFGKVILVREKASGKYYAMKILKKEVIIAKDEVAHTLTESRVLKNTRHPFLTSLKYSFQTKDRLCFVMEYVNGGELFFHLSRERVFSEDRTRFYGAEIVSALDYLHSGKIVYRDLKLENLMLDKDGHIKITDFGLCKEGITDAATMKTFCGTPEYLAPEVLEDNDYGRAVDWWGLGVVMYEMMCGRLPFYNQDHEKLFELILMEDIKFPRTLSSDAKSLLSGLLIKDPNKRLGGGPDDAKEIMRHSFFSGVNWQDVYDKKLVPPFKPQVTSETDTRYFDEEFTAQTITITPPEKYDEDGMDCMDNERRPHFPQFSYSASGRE
T3 sequence (P08069 31-1367): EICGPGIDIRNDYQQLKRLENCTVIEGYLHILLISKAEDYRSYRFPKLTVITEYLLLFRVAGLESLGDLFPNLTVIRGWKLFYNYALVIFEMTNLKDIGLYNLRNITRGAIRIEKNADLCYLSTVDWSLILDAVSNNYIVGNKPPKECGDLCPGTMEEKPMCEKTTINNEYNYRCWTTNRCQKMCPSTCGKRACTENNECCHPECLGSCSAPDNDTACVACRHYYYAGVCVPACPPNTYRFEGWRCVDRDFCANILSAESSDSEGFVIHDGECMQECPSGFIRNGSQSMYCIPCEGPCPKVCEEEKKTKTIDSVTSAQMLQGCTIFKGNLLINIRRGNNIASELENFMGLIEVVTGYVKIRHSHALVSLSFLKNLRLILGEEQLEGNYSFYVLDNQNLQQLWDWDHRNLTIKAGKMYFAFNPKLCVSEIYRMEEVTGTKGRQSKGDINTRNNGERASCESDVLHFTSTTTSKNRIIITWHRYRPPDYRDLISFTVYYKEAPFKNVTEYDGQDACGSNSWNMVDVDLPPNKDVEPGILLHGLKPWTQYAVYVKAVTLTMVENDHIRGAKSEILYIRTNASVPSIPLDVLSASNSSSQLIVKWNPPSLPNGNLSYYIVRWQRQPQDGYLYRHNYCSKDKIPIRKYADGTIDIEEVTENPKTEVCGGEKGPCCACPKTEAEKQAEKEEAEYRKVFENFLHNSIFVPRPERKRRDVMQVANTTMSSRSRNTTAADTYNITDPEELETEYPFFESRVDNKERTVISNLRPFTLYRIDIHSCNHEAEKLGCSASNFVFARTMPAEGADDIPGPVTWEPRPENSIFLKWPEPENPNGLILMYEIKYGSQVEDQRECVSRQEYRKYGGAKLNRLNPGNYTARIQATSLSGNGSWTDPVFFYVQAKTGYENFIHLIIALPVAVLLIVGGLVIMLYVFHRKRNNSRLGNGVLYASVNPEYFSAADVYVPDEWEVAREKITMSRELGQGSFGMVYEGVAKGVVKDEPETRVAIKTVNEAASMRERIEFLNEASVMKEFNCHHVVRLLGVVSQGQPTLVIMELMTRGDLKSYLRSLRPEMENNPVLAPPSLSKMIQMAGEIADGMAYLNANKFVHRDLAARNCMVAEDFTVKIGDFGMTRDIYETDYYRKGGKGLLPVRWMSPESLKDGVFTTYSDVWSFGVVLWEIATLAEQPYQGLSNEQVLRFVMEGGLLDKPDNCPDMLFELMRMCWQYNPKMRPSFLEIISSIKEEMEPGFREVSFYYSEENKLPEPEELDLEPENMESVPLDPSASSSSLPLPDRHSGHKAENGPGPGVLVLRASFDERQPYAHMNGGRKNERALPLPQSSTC
T1 sequence (P06239 whole entry, species assumed, the tested form may be a part): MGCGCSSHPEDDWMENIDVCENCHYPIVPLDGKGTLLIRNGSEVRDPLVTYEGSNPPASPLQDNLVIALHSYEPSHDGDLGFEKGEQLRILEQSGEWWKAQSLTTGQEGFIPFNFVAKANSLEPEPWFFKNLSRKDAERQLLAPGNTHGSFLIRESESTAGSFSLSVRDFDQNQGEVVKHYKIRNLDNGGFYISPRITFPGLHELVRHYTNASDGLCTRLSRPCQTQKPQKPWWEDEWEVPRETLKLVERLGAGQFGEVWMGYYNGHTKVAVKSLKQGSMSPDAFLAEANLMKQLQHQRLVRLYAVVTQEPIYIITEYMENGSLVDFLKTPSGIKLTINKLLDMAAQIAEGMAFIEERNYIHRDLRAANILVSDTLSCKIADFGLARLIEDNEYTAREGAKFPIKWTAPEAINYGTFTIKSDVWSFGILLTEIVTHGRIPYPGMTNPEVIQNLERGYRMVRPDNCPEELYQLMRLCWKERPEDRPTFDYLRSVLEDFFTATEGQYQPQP

| IC50 (Lck) | IC50 (Zap-70) | IC50 (IGFR-1) | IC50 (Kdr) | IC50 (EGFR) | IC50 (AKT) | IC50 (c-Met) | IC50 (Itk) | IC50 (Tek) | IC50 (EPHB4) | Compound |
| --- | --- | --- | --- | --- | --- | --- | --- | --- | --- | --- |
| > 9.37 µM | > 9.37 µM | > 9.37 µM | > 9.37 µM | > 9.37 µM | > 9.37 µM | > 9.37 µM | > 9.37 µM | > 9.37 µM | > 9.37 µM | COc1cc(OC)cc(-c2nnc(Nc3ncnc(Nc4cc(OC)c(OC)c(OC)c4)n3)[nH]2)c1 [Compound 312] |
| 1.08 to 6.46 µM | > 12.1 µM | 1.08 to 6.46 µM | 1.08 to 6.46 µM | 1.08 to 6.46 µM | > 12.1 µM | > 12.1 µM | > 12.1 µM | 1.08 to 6.46 µM | 9.42 to 12.1 µM | COc1cc(Nc2ncnc(Nc3ccc(F)cc3)n2)cc(OC)c1OC [Compound 303] |
| 6.26 to 9.13 µM | > 11.7 µM | > 11.7 µM | 1.04 to 6.26 µM | 6.26 to 9.13 µM | > 11.7 µM | > 11.7 µM | > 11.7 µM | > 11.7 µM | > 11.7 µM | COc1cc(Nc2ncnc(Nc3ccc(O)cc3C)n2)cc(OC)c1OC [Compound 927] |
| > 9.48 µM | > 9.48 µM | > 9.48 µM | < 0.843 µM | > 9.48 µM | > 9.48 µM | > 9.48 µM | > 9.48 µM | > 9.48 µM | > 9.48 µM | COc1cc(Nc2ncnc(Nc3ccc(S(=O)(=O)NC(C)=O)cc3)n2)cc(OC)c1OC [Compound 255] |
| > 11.4 µM | > 11.4 µM | > 11.4 µM | > 11.4 µM | > 11.4 µM | > 11.4 µM | > 11.4 µM | > 11.4 µM | > 11.4 µM | > 11.4 µM | COc1cc(Nc2ncnc(-c3cc4ccccc4s3)n2)cc(OC)c1OC [Compound 218] |
| > 12.6 µM | > 12.6 µM | > 12.6 µM | 9.82 to 12.6 µM | > 12.6 µM | > 12.6 µM | > 12.6 µM | > 12.6 µM | > 12.6 µM | > 12.6 µM | COc1cc(Nc2ncnc(-c3ccc(F)cc3)n2)cc(OC)c1OC [Compound 222] |
| > 14 µM | > 14 µM | > 14 µM | > 14 µM | > 14 µM | > 14 µM | > 14 µM | > 14 µM | > 14 µM | > 14 µM | COCCOc1ccc(Nc2ncnc(-c3ccccc3)n2)cc1 [Compound 155] |
| 5.72 to 8.34 µM | > 10.7 µM | > 10.7 µM | > 10.7 µM | > 10.7 µM | > 10.7 µM | > 10.7 µM | 8.34 to 10.7 µM | > 10.7 µM | > 10.7 µM | COc1cc(Nc2ncnc(Nc3[nH]ncc3-c3ccccc3)n2)cc(OC)c1OC [Compound 369] |
| > 10.3 µM | > 10.3 µM | > 10.3 µM | > 10.3 µM | > 10.3 µM | > 10.3 µM | > 10.3 µM | > 10.3 µM | > 10.3 µM | > 10.3 µM | OCCCNc1cc(-c2ncnc(Nc3cccc(OC(F)(F)C(F)F)c3)n2)ccn1 [Compound 372] |
| 6.36 to 9.27 µM | 6.36 to 9.27 µM | 1.06 to 6.36 µM | > 11.9 µM | > 11.9 µM | > 11.9 µM | > 11.9 µM | > 11.9 µM | > 11.9 µM | 1.06 to 6.36 µM | COC(=O)c1ccc(Nc2ncnc(Nc3cc(-c4ccco4)n[nH]3)n2)cc1 [Compound 366] |
| > 12.7 µM | > 12.7 µM | > 12.7 µM | > 12.7 µM | > 12.7 µM | > 12.7 µM | > 12.7 µM | > 12.7 µM |  | > 12.7 µM | COc1cc(Nc2ncnc(Nc3ccncc3)n2)cc(OC)c1OC [Compound 39] |
| > 11.3 µM | > 11.3 µM | 8.76 to 11.3 µM | > 11.3 µM | > 11.3 µM | > 11.3 µM | > 11.3 µM | > 11.3 µM |  | 6 to 8.76 µM | FC(F)C(F)(F)Oc1cccc(Nc2ncnc(-c3ccnc(Cl)c3)n2)c1 [Compound 330] |
